# Reference: PubChem BioAssay (NCI)
#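 Exposure lasted 48 hours, with cells grown in 96-well plates and compounds tested at five concentrations. TGI: total growth inhibition.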
# Assays:
# Assay in all cases: growth of human tumour cells (NCI), 48 h
# [1] = test system: SK-MEL-5 melanoma
# [2] = test system: SW-620 colon
# [3] = test system: HS 578T breast
# [4] = test system: TK-10 renal
# [5] = test system: HOP-62 NSCLC
# [6] = test system: 786-0 renal
# [7] = test system: BT-549 breast
# [8] = test system: LOX IMVI melanoma
# [9] = test system: T-47D breast
# [10] = test system: SK-MEL-2 melanoma
# [11] = test system: HL-60(TB) leukemia
# [12] = test system: MDA-MB-435
# [13] = test system: SF-295 CNS
# [14] = test system: UO-31 renal
# [15] = test system: NCI-H460 lung
# [16] = test system: SF-268 CNS
# [17] = test system: HT29 colon
# [18] = test system: DU-145 prostate
# [19] = test system: RPMI-8226 leukemia
# [20] = test system: SR leukemia
Structure (SMILES),TGI [1] [µM],TGI [2] [µM],TGI [3] [µM],TGI [4] [µM],TGI [5] [µM],TGI [6] [µM],TGI [7] [µM],TGI [8] [µM],TGI [9] [µM],TGI [10] [µM],TGI [11] [µM],TGI [12] [µM],TGI [13] [µM],TGI [14] [µM],TGI [15] [µM],TGI [16] [µM],TGI [17] [µM],TGI [18] [µM],TGI [19] [µM],TGI [20] [µM]
C/C(=N\Nc1nc2ccccc2[nH]1)c1cnccn1,13.2,> 66,> 100,> 66.5,> 100,> 100,> 85.3,> 30.5,> 68.4,26,0.429,> 29.6,> 76.5,> 27.2,> 100,> 100,> 48,,,
CCNC1=C(NC(=O)c2ccccc2)C(=O)c2ccccc2C1=O,,> 100,> 100,> 100,> 100,> 100,> 100,,> 100,,> 100,19.4,> 100,,> 100,,82.5,> 100,> 100,> 100
CCOC(=O)NN(C(=O)OCC)C(=C(C1=CCCCC1)N1CCOCC1)N(NC(=O)OCC)C(=O)OCC,,> 100,,> 100,> 100,> 100,> 100,> 100,> 100,,> 100,> 100,> 100,> 100,> 100,> 100,> 100,> 100,> 100,> 100
Nc1cc2ncnn2c(SCC(=O)N/N=C/C(Br)=C\c2ccccc2)n1,26.2,30.5,> 100,72.3,87.2,36.9,44.1,45.6,9.35,,62.4,30.9,67.7,32,53.5,,28,,50.1,> 100
COC1=C2CC(C)CC(OC)C(OC(=O)CN)[C@H](C)/C=C(\C)C(OC(N)=O)C(OC)/C=C\C=C(/C)C(=O)NC(=CC1=O)C2=O (stereo not given in full),4.51,1.25,20.2,15.6,6.02,6.45,14.2,0.828,1.32,14.7,,2.89,17.5,11.6,20.9,16.4,11.2,16.4,> 100,1.98
O=[N+]([O-])c1cc(N=Nc2c(O)ccc3cc(S(=O)(=O)O)ccc23)c(O)c([N+](=O)[O-])c1,> 100,> 100,> 100,> 100,> 100,> 100,> 100,> 100,> 100,> 100,> 100,> 100,> 100,> 100,,> 100,> 100,> 100,> 100,
C[P+](c1ccccc1)(c1ccc(Cl)cc1)c1ccc(Cl)cc1,14.4,> 100,78.2,36.9,70.4,> 100,68.3,32.5,49.3,46.3,,18.7,,> 100,> 100,> 100,24.1,94.6,2.41,
Nc1ncc(C=O)c(NCC2(CO)CCC2)n1,86.9,> 100,> 100,73.8,> 100,> 100,,> 100,88.9,> 100,> 100,> 100,> 100,> 100,> 100,> 100,> 100,> 100,> 100,> 100
CN(C)C(=S)C(Cl)(c1ccccc1)c1ccccc1,> 100,> 100,> 100,> 100,> 100,> 100,> 100,> 100,61.7,66.8,71.6,> 100,> 100,> 100,> 100,> 100,77.3,> 100,,
O=c1oc2ccccc2c(O)c1C(c1ccc(-c2ccccc2)cc1)c1c(O)c2ccccc2oc1=O,80.9,33.2,60.4,> 100,55.4,81.3,40.4,44.4,> 100,56.8,51.7,46.9,,31.6,33.7,57.1,38.3,> 100,95.8,
OCCCCn1cc(Cn2ncc3c(NCc4ccccc4)ncnc32)nn1,> 100,> 100,> 100,> 100,> 100,> 100,> 100,> 100,> 100,> 100,,> 100,> 100,> 100,> 100,> 100,> 100,> 100,> 100,> 100
O=C1c2ccccc2C(=O)c2c(NC(=O)C3CC3)ccc(NC(=O)C3CC3)c21,> 100,> 100,> 100,> 100,> 100,> 100,> 100,> 100,> 100,> 100,> 100,> 100,> 100,> 100,> 100,,> 100,,> 100,> 100
COc1ccc(CCNC(=O)c2ccccc2C2c3ccc(OCc4ccccc4)cc3Oc3cc(OCc4ccccc4)ccc32)cc1OC,> 100,> 100,,> 100,> 100,> 100,> 100,> 100,> 100,> 100,> 100,> 100,> 100,> 100,,> 100,> 100,> 100,> 100,> 100
